Legend:
human FAAH [1] = target: T1, human FAAH (Homo sapiens, UniProt O00519); assay: FAAH cell lysate assay (human lysate, FAAH_CHO, AAMCA substrate); assay type: biochemical; settings: lysate of CHO cells expressing human FAAH; read-out: human lysate_IC50
T1 construct: The full length FAAH was subcloned into the mammalian expression vector, pcDEF.neo, using XbaI and EcoRI restriction sites; expressed in transfected cells
T1 sequence (O00519 1-579): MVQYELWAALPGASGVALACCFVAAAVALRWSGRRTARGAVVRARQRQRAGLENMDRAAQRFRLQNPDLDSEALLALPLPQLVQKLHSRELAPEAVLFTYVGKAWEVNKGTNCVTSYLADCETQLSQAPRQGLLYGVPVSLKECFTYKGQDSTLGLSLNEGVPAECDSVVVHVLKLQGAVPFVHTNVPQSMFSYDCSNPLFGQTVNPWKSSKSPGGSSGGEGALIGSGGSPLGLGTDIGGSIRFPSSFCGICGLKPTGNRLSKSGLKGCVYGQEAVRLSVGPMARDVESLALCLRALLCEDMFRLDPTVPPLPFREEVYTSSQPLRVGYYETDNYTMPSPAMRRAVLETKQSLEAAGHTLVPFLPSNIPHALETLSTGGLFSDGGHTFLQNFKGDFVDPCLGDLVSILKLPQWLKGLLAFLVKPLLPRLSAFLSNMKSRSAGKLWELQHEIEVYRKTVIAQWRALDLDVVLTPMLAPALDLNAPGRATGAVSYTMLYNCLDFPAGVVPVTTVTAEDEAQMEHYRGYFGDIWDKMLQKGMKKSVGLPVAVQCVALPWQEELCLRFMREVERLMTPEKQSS
Description: (§1) To assist in assay development stable cell lines for human, murine and rat full length FAAH were developed. Human FAAH cDNA (Accession No: NM_001441.1) was purchased from Origene (Rockville, Md.). The full length FAAH was subcloned into the mammalian expression vector, pcDEF.neo, using XbaI and EcoRI restriction sites and used for stable cell line generation.
CHO cells expressing FAAH were used to prepare either crude cell lysate or microsome fractions. To harvest cells, tissue culture media was decanted, the monolayer washed three times with Ca^++Mg^++ free PBS and cells recovered after 15 mm in enzyme free dissociation media (Millipore Corp, Billerica, Mass.). Cells were collected by centrifuging at 2000 rpm for 15 min. and the cell pellet re-suspended with 50 mM HEPES (pH 7.4) containing 1 mM EDTA and the protease inhibitors aprotinin (1 mg/ml) and leupeptin (100 μM). The suspension was sonicated at 4° C. and the cell lysate recovered after centrifuging at 12,000×g (14,600 rpm, SS34 rotor) for 20 min at 4° C. to form a crude pellet of cell debris, nuclei, peroxisomes, lysosomes, and mitochondria; the supernatant or cell lysate was used for FAAH enzyme assay. In some cases, microsomes fractions enriched in FAAH were prepared by centrifuging the cell lysate further at 27,000 rpm (100,000×g) in SW28 rotor for 50 minutes at 4° C. The pellet containing FAAH-enriched microsomes was re-suspend in 50 mM HEPES, (pH 7.4) 1 mM EDTA, and any remaining DNA sheared by passage of material through a 23 gauge needle and aliquots of enzyme were store at −80° C. prior to use.
(American Radiolabeled Chemicals; 1 mCi/ml) with FAAH (Life Sciences (1995), 56, 1999-2005 and Journal of Pharmacology and Experimented Therapeutics (1997), 283, 729-734), Analytical. Biochemistry (2003), 318:270-5. In addition, routine assays were performed monitoring hydrolysis of araehidonyl-7-amino-4-methylcoumarin amide (AAMCA) by following increase in fluorescence upon release of 7-amino 4-methyl coumarin (λEX=355 nm, (λEM=460 nm). Analytical. Biochemistry (2005). 343:143-51
(§2) Assays are performed on either cell lysate or microsome fractions prepared as described or in whole cell format employing either the fluorescent substrate AAMCA (Cayman chemical, Ann Arbor, Mich.) or ^3H-anandamide ([ETHANOLAMINE-1-3H] American Radiolabeled Chemicals; 1 mCi/ml). The cell lysate or microsome assay is performed in black PerkinElmer OptiPlates-384F by adding FAAH_CHO (whole cell (shown as human Whole cell or Human WC), cell lysate (shown as human lysate of human LY) or microsome) in assay buffer (50 mM Phosphate, pH 8.0, 1 mM EDTA, 200 mM KCl, 0.2% glycerol, 0.1% fatty acid free BSA) to each well, followed by either DMSO or compound and allowed to incubate at 22-25° C. for fifteen minutes. AAMCA substrate was used to achieve a final concentration of 1 μM and reaction allowed to proceed at room temperature for 1-3 hours. Fluorescent release as a measure of FAAH activity was monitored by reading the plate in an Envision plate Reader (Ex: 360/40 nM; Em: 460/40 nM). Whole cell assay is conducted with cells harvested after rinsing tissue culture flasks three times with Ca^++Mg^++ free PBS, incubating for 10 min in Enzyme free dissociation media and centrifuging for 5 minutes at 1,000 rpm in table top centrifuge. Cells are resuspended in assay buffer at desired cell number in (4×10^4 cells/assay in 96-well format; 1×10^4 cells/assay in 384-well format) and assayed as described.

human FAAH [2] = target: T1, human FAAH; assay: FAAH whole cell assay (human Whole cell, FAAH_CHO, AAMCA substrate); assay type: cell-based; settings: CHO cells expressing human FAAH, whole cell format; read-out: human cell_IC50
Description: as §1
Murine (accession number NM_010173) and Rat FAAH (accession number NM_024132) was amplified by reverse transcriptase polymerase chain reaction (RT-PCR) from brain cDNA (BD Biosciences, San Jose, Calif.) using primers 1 and 2 or primers 1 and 3 respectively (see Table). The resulting PCR product was ligated into pCR4 TOPO and DNA sequence confirmed. The full length murine FAAH was subcloned into the mammalian expression vector, pcDEFneo using either EcoRI (murine) or KpnI and EcoRI (rat) restriction sites. Chinese hamster ovary cells (CHO) were transfected following manufacturers protocol (AMAXA). Forty eight hours post transfection, cells were trypsinized and transferred to 96 well plates in Iscove's DMEM media supplemented with 2 mM Glutamine, 10% fetal calf serum, 1 mg/ml geneticin and HT Supplement (0.1 mM sodium hypoxanthine, 0.016 mM thymidine) in order to isolate single clones. Following selection in geneticin, individual clones were selected and FAAH activity was assessed using a whole cell fluorescent anandamide assay, modified from Ramarao et al (2005). Following removal of tissue culture media cells were dislodged following addition of Cellstripper (Mediatech, Inc. Manassas, Va.) and transferred to 96 well black clear bottom assay plate, centrifuged at 1,000 rpm for 3 mins and media removed and replaced with assay buffer (50 mM Tris pH8.0, 1 mM EDTA, 0.1% fatty acid free BSA). The reaction was initiated by addition of fluorescent substrate, AMC Arachidonoyl Amide (Cayman Chemical, Ann Arbor, Mich.) to 1 μM and reaction allowed to proceed for 2 hours at room temperature. Release of fluorescence was monitored in a CytoFluor Multiplate Reader. Cells expressing the highest amount of FAAH activity were selected for study with FAAH inhibitors.
as §2

Structure (SMILES)	IC50 (human FAAH [1])	IC50 (human FAAH [2])
CNC(=O)c1ccc(OC(C)c2nc(-c3ccc(F)cc3)oc2Sc2ccc(Cl)cn2)cc1 (stereo not drawn) [Example B7.2, 4-(1-{5-[(5-chloropyridin-2-yl)sulfanyl]-2-(4-fluorophenyl)-1,3-oxazol-4-yl}ethoxy)-N-methylbenzamide]	21 nM	80 nM
O=C(NCC(F)(F)F)c1ccc(OCc2nc(-c3ccc(F)cc3)oc2Sc2ccc(Cl)cn2)cc1 [Example B2.11.5, 4-({5-[(5-chloropyridin-2-yl)sulfanyl]-2-(4-fluorophenyl)-1,3-oxazol-4-yl}methoxy)-N-(2,2,2-trifluoroethyl)benzamide]	5 nM	22 nM
CSc1ccc(OCc2nc(-c3ccc(F)cc3)oc2Sc2ccc(Cl)cn2)cc1 [Example B2.2, 5-chloro-2-{[2-(4-fluorophenyl)-4-{[4-(methylsulfanyl)phenoxy]methyl}-1,3-oxazol-5-yl]sulfanyl}pyridine]	55 nM	507 nM
CS(=O)(=O)c1ccc(NC(=O)c2nc(-c3ccc(F)cc3)oc2Sc2ccc(Cl)cn2)cc1 [Example A5.1, 5-[(5-chloropyridin-2-yl)sulfanyl]-2-(4-fluorophenyl)-N-[4-(methylsulfonyl)phenyl]-1,3-oxazole-4-carboxamide]	61 nM	388 nM
COC(=O)[C@H]1CC[C@H](NCc2nc(-c3ccc(F)cc3)oc2Sc2ccc(Cl)cn2)CC1 [Example B5.10, methyl trans-4-{({5-[(5-chloropyridin-2-yl)sulfanyl]-2-(4-fluorophenyl)-1,3-oxazol-4-yl}methyl)amino] cyclohexanecarboxylate]	12 nM	31 nM
CS(=O)(=O)c1ccc(OCc2nc(-c3ccc(F)cc3)oc2Sc2ccc(Cl)cn2)cc1 [Example B2.3, 5-chloro-2-{[2-(4-fluorophenyl)-4-{[4-(methylsulfonyl)phenoxy]methyl}-1,3-oxazol-5-yl]sulfanyl}pyridine]	54 nM	535 nM
OC(c1ccc(OCc2nc(-c3ccc(F)cc3)oc2Sc2ccc(Cl)cn2)cc1)C(F)(F)F (stereo not drawn) [Example B2.8, 1-[4-({5-[(5-chloropyridin-2-yl)sulfanyl]-2-(4-fluorophenyl)-1,3-oxazol-4-yl}methoxy)phenyl]-2,2,2-trifluoroethanol]	130 nM	513 nM
CCNC(=O)c1ccc(NCc2nc(-c3ccc(F)cc3)oc2Sc2ccc(Cl)cn2)cc1 [Example B5.4, 4-[({5-[(5-chloropyridin-2-yl)sulfanyl]-2-(4-fluorophenyl)-1,3-oxazol-4-yl}methyl)amino]-N-ethylbenzamide]	3 nM	8 nM

Further lines, results first:

IC50 (human FAAH [1])	IC50 (human FAAH [2])	Structure (SMILES)
2 nM	10 nM	COC(=O)c1ccc(OCc2nc(-c3ccc(F)cc3)oc2Sc2ccc(Cl)cn2)nc1 [Example B2.9, methyl 6-({5-[(5-chloropyridin-2-yl)sulfanyl]-2-(4-fluorophenyl)-1,3-oxazol-4-yl}methoxy)pyridine-3-carboxylate]
3 nM	14 nM	CCNC(=O)c1ccc(OCc2nc(-c3ccc(F)cc3)oc2Sc2ccc(Cl)cn2)cc1 [Example B2.11.2, 4-({5-[(5-chloropyridin-2-yl)sulfanyl]-2-(4-fluorophenyl)-1,3-oxazol-4-yl}methoxy)-N-ethylbenzamide]
4 nM	10 nM	CCNC(=O)c1ccc(OCc2nc(-c3ccc(F)cc3)oc2Sc2ccc(Cl)cn2)nc1 [Example B2.16, 6-({5-[(5-chloropyridin-2-yl)sulfanyl]-2-(4-fluorophenyl)-1,3-oxazol-4-yl}methoxy)-N-ethylpyridine-3-carboxamide]
17 nM	42 nM	CCNC(=O)c1ccc(NCc2nc(-c3ccc(F)cc3)oc2Sc2ccc(Cl)cn2)nc1 [Example B5.8, 6-[({5-[(5-chloropyridin-2-yl)sulfanyl]-2-(4-fluorophenyl)-1,3-oxazol-4-yl}methyl)amino]-N-ethylpyridine-3-carboxamide]
